The values below come from patent US20240116985A1, “STAPLED PEPTIDES AND METHODS THEREOF” (priority 2020, published 2024).

Usually IC50 stands for the concentration needed to halve the response being measured.

For this assay, the target named is T1, full-length beta-Catenin (Uniprot ID P35222) (Homo sapiens, UniProt P35222).
T1 construct: 10 nM full-length beta-Catenin (Uniprot ID P35222)
T1 sequence (P35222 1-781): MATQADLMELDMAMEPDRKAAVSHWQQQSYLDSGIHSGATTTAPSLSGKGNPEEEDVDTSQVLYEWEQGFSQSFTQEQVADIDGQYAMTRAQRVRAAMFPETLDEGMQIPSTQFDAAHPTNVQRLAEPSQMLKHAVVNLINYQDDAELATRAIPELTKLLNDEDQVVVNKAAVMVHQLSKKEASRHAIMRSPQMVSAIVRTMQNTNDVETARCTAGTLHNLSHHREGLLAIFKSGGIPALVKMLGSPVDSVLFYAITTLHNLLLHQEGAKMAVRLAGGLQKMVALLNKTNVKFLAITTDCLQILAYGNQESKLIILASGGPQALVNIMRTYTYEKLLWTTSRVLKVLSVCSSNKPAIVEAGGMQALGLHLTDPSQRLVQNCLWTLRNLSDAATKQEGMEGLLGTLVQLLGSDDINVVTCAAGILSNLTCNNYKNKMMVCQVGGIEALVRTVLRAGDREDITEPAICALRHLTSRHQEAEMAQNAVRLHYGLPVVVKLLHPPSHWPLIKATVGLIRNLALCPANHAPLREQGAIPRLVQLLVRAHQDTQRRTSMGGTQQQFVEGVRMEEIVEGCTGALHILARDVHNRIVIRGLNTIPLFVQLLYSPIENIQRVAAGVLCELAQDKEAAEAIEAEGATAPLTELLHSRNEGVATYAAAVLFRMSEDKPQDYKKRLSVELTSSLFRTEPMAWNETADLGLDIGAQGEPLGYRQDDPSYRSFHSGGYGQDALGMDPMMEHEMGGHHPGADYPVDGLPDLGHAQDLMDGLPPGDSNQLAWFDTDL
As to the kind of experiment: Fluorescence polarization IC50 (beta-catenin / 5FAM-TCF4 10-53 competition). It is filed as binding. The note with it: fluorescence polarization; read-out: beta-Catenin FP IC50. In general terms: Polarisation of emitted light reports the rotation of a fluorescent probe.

Consider `CC(=O)N1CCC[C@]12CC=CCCCC1(CCCC=CCCCOC(=O)N3CC[C@@](C(=O)N[C@@H](Cc4ccccc4)C(=O)N[C@@H](Cc4csc5ccccc45)C(=O)N[C@@H](CCCCNC(C)C)C(N)=O)(C3)NC(=O)[C@H](CC(C)C)NC(=O)[C@H](Cc3ccccc3)NC(=O)[C@H](C)NC(=O)[C@H](CCCCNC(C)C)NC(=O)[C@H](CCC(N)=O)NC(=O)[C@H](CC(=O)O)NC1=O)NC(=O)[C@H](CC(C)(C)C)NC(=O)[C@H](CC(N)=O)NC2=O` (stereo partly drawn) [I-1645, Ac-PL3-Asn-Npg-B5-Asp-Gln-iPrLys-Ala-Phe-Leu-PyrS2-Phe-BztA-iPrLys-NH2], for which the IC50 stood at 940 nM.
Turning to `CC(=O)N1CCC[C@]12CC=CCCCC1(CCCC=CCCCOC(=O)N3CC[C@@](C(=O)N[C@@H](Cc4ccccc4)C(=O)N[C@@H](Cc4csc5ccccc45)C(=O)N[C@@H](CCO)C(N)=O)(C3)NC(=O)[C@H](CC(C)C)NC(=O)[C@H](Cc3ccccc3)NC(=O)[C@H](C)NC(=O)[C@H](CCCCNC(C)C)NC(=O)[C@H](CCC(N)=O)NC(=O)[C@H](CC(=O)O)NC1=O)NC(=O)[C@H](CC(C)(C)C)NC(=O)[C@H](CC(N)=O)NC2=O` (stereo partly drawn) [I-1646, Ac-PL3-Asn-Npg-B5-Asp-Gln-iPrLys-Ala-Phe-Leu-PyrS2-Phe-BztA-Hse-NH2], the IC50 stood at 640 nM.
The figure for `CC(=O)N1CCC[C@]12CC=CCCCC1(CCCC=CCCCOC(=O)N3CC[C@@](C(=O)N[C@@H](Cc4ccccc4)C(=O)N[C@@H](Cc4csc5ccccc45)C(=O)N[C@@H](CCC(N)=O)C(N)=O)(C3)NC(=O)[C@H](CC(C)C)NC(=O)[C@H](Cc3ccccc3)NC(=O)[C@H](C)NC(=O)[C@H](CCCCNC(C)C)NC(=O)[C@H](CCC(N)=O)NC(=O)[C@H](CC(=O)O)NC1=O)NC(=O)[C@H](Cc1ccc(O)cc1)NC(=O)[C@H](CC(N)=O)NC2=O` (stereo partly drawn) [I-1647, Ac-PL3-Asn-Tyr-B5-Asp-Gln-iPrLys-Ala-Phe-Leu-PyrS2-Phe-BztA-Gln-NH2] is 2350 nM; for `CC(=O)N1CCC[C@]12CC=CCCCC1(CCCC=CCCCOC(=O)N3CC[C@@](C(=O)N[C@@H](Cc4ccccc4)C(=O)N[C@@H](Cc4csc5ccccc45)C(=O)N[C@@H](CCC(N)=O)C(N)=O)(C3)NC(=O)[C@H](CC(C)C)NC(=O)[C@H](CC3CCCCC3)NC(=O)[C@H](C)NC(=O)[C@H](CCCCNC(C)C)NC(=O)[C@H](CCC(N)=O)NC(=O)[C@H](CC(=O)O)NC1=O)NC(=O)[C@H](CC(C)(C)C)NC(=O)[C@H](CC(N)=O)NC2=O` (stereo partly drawn) [I-1649, Ac-PL3-Asn-Npg-B5-Asp-Gln-iPrLys-Ala-Cha-Leu-PyrS2-Phe-BztA-Gln-NH2] it is 2480 nM.
The figure for `CC(=O)N1CCC[C@]12CC=CCCCC1(CCCC=CCCCOC(=O)N3CC[C@@](C(=O)N[C@@H](Cc4ccccc4)C(=O)N[C@@H](Cc4csc5ccccc45)C(=O)N[C@@H](CCC(N)=O)C(N)=O)(C3)NC(=O)[C@H](CC3CCCCC3)NC(=O)[C@H](Cc3ccccc3)NC(=O)[C@H](C)NC(=O)[C@H](CCCCNC(C)C)NC(=O)[C@H](CCC(N)=O)NC(=O)[C@H](CC(=O)O)NC1=O)NC(=O)[C@H](CC(C)(C)C)NC(=O)[C@H](CC(N)=O)NC2=O` (stereo partly drawn) [I-1650, Ac-PL3-Asn-Npg-B5-Asp-Gln-iPrLys-Ala-Phe-Cha-PyrS2-Phe-BztA-Gln-NH2] is 1680 nM; for `CC(=O)N1CCC[C@]12CC=CCCCC1(CCCC=CCCCOC(=O)N3CC[C@@](C(=O)N[C@@H](CC4CCCCC4)C(=O)N[C@@H](Cc4csc5ccccc45)C(=O)N[C@@H](CCC(N)=O)C(N)=O)(C3)NC(=O)[C@H](CC(C)C)NC(=O)[C@H](Cc3ccccc3)NC(=O)[C@H](C)NC(=O)[C@H](CCCCNC(C)C)NC(=O)[C@H](CCC(N)=O)NC(=O)[C@H](CC(=O)O)NC1=O)NC(=O)[C@H](CC(C)(C)C)NC(=O)[C@H](CC(N)=O)NC2=O` (stereo partly drawn) [I-1651, Ac-PL3-Asn-Npg-B5-Asp-Gln-iPrLys-Ala-Phe-Leu-PyrS2-Cha-BztA-Gln-NH2] it is 3970 nM.
The figure for `CC(=O)N1CCC[C@]12CC=CCCCC1(CCCC=CCCCOC(=O)N3CC[C@@](C(=O)N[C@@H](Cc4ccccc4)C(=O)N[C@@H](Cc4csc5ccccc45)C(=O)N[C@@H](CCC(N)=O)C(N)=O)(C3)NC(=O)[C@H](CCCCNC(C)C)NC(=O)[C@H](Cc3ccccc3)NC(=O)[C@H](C)NC(=O)[C@H](CCCCNC(C)C)NC(=O)[C@H](CCC(N)=O)NC(=O)[C@H](CC(=O)O)NC1=O)NC(=O)[C@H](CC(C)(C)C)NC(=O)[C@H](CC(N)=O)NC2=O` (stereo partly drawn) [I-1653, Ac-PL3-Asn-Npg-B5-Asp-Gln-iPrLys-Ala-Phe-iPrLys-PyrS2-Phe-BztA-Gln-NH2] is 903 nM; for `CC(=O)N1CCC[C@]12CC=CCCCC1(CCCC=CCCCOC(=O)N3CC[C@@](C(=O)N[C@@H](Cc4ccccc4)C(=O)N[C@@H](Cc4csc5ccccc45)C(=O)N[C@@H](CCCCNC(C)C)C(N)=O)(C3)NC(=O)[C@H](CCCCNC(C)C)NC(=O)[C@H](Cc3ccccc3)NC(=O)[C@H](C)NC(=O)[C@H](CCCCNC(C)C)NC(=O)[C@H](CCC(N)=O)NC(=O)[C@H](CC(=O)O)NC1=O)NC(=O)[C@H](CC(C)(C)C)NC(=O)[C@H](CC(N)=O)NC2=O` (stereo partly drawn) [I-1654, Ac-PL3-Asn-Npg-B5-Asp-Gln-iPrLys-Ala-Phe-iPrLys-PyrS2-Phe-BztA-iPrLys-NH2] it is 2130 nM.
`CC(=O)N1CCC[C@]12CC=CCCCC1(CCCC=CCCCOC(=O)N3CC[C@@](C(=O)N[C@@H](Cc4ccccc4Cl)C(=O)N[C@@H](Cc4csc5ccccc45)C(=O)N[C@@H](CCC(N)=O)C(=O)N[C@@H](C)CO)(C3)NC(=O)[C@H](CC(C)C)NC(=O)[C@H](Cc3ccccc3)NC(=O)[C@H](C)NC(=O)[C@H](C)NC(=O)[C@H](Cc3cccc(C(=O)O)c3)NC(=O)[C@H](CC(=O)O)NC1=O)NC(=O)[C@H](CC(C)(C)C)NC(=O)[C@H](CC(=O)O)NC2=O` (stereo partly drawn) [I-1673, Ac-PL3-Asp-Npg-B5-Asp-3COOHF-Ala-Ala-Phe-Leu-PyrS2-2C1F-BztA-Gln-Alao1]: the IC50 worked out at 28 nM.
The figure for `CC(=O)N1CCC[C@]12CC=CCCCC1(CCCC=CCCCOC(=O)N3CC[C@@](C(=O)N[C@@H](Cc4ccccc4Cl)C(=O)N[C@@H](Cc4csc5ccccc45)C(=O)N[C@@H](CCC(N)=O)C(=O)N[C@H](CO)CC(C)C)(C3)NC(=O)[C@H](CC(C)C)NC(=O)[C@H](Cc3ccccc3)NC(=O)[C@H](C)NC(=O)[C@H](C)NC(=O)[C@H](Cc3cccc(C(=O)O)c3)NC(=O)[C@H](CC(=O)O)NC1=O)NC(=O)[C@H](CC(C)(C)C)NC(=O)[C@H](CC(=O)O)NC2=O` (stereo partly drawn) [I-1676, Ac-PL3-Asp-Npg-B5-Asp-3COOHF-Ala-Ala-Phe-Leu-PyrS2-2C1F-BztA-Gln-Leuo1] is 91 nM; for `CC(=O)N1CCC[C@]12CC=CCCCC1(CCCC=CCCCOC(=O)N3CC[C@@](C(=O)N[C@@H](Cc4ccccc4Cl)C(=O)N[C@@H](Cc4csc5ccccc45)C(=O)N[C@@H](CCC(N)=O)C(=O)N[C@H](CO)[C@@H](C)O)(C3)NC(=O)[C@H](CC(C)C)NC(=O)[C@H](Cc3ccccc3)NC(=O)[C@H](C)NC(=O)[C@H](C)NC(=O)[C@H](Cc3cccc(C(=O)O)c3)NC(=O)[C@H](CC(=O)O)NC1=O)NC(=O)[C@H](CC(C)(C)C)NC(=O)[C@H](CC(=O)O)NC2=O` (stereo partly drawn) [I-1677, Ac-PL3-Asp-Npg-B5-Asp-3COOHF-Ala-Ala-Phe-Leu-PyrS2-2C1F-BztA-Gln-Thro1] it is 17 nM.
The figure for `CC(=O)N1CCC[C@]12CC=CCCCC1(CCCC=CCCCOC(=O)N3CC[C@@](C(=O)N[C@@H](Cc4ccsc4)C(=O)N[C@@H](Cc4csc5ccccc45)C(=O)N[C@@H](CCC(N)=O)C(=O)N[C@@H](C)CO)(C3)NC(=O)[C@H](CC(C)C)NC(=O)[C@H](Cc3ccccc3)NC(=O)[C@H](C)NC(=O)[C@H](C)NC(=O)[C@H](CN(CC(=O)O)CC(F)(F)F)NC(=O)[C@H](CC(=O)O)NC1=O)NC(=O)[C@H](CC(C)(C)C)NC(=O)[C@H](CC(=O)O)NC2=O` (stereo partly drawn) [I-1679, Ac-PL3-Asp-Npg-B5-Asp-TfeGA-Ala-Ala-Phe-Leu-PyrS2-3Thi-BztA-Gln-Alao1] is 17.5 nM; for `CC(=O)N1CCC[C@]12CC=CCCCC1(CCCC=CCCCOC(=O)N3CC[C@@](C(=O)N[C@@H](Cc4ccsc4)C(=O)N[C@@H](Cc4csc5ccccc45)C(=O)N[C@@H](CCC(N)=O)C(=O)N[C@H](CO)CC(C)C)(C3)NC(=O)[C@H](CC(C)C)NC(=O)[C@H](Cc3ccccc3)NC(=O)[C@H](C)NC(=O)[C@H](C)NC(=O)[C@H](CN(CC(=O)O)CC(F)(F)F)NC(=O)[C@H](CC(=O)O)NC1=O)NC(=O)[C@H](CC(C)(C)C)NC(=O)[C@H](CC(=O)O)NC2=O` (stereo partly drawn) [I-1682, Ac-PL3-Asp-Npg-B5-Asp-TfeGA-Ala-Ala-Phe-Leu-PyrS2-3Thi-BztA-Gln-Leuo1] it is 41 nM.
`CC(=O)N1CCC[C@]12CC=CCCCC1(CCCC=CCCCOC(=O)N3CC[C@@](C(=O)N[C@@H](Cc4ccccc4Cl)C(=O)N[C@@H](Cc4csc5ccccc45)C(=O)N[C@@H](CCC(N)=O)C(N)=O)(C3)NC(=O)[C@H]([C@@H](C)O)NC(=O)[C@H](Cc3ccccc3)NC(=O)[C@H](C)NC(=O)CNC(=O)[C@H](CN(CC(=O)O)CC(F)(F)F)NC(=O)[C@H](CC(=O)O)NC1=O)NC(=O)[C@H](CC(C)(C)C)NC(=O)[C@H](CC(=O)O)NC2=O` (stereo partly drawn) [I-1690, Ac-PL3-Asp-Npg-B5-Asp-TfeGA-Gly-Ala-Phe-Thr-PyrS2-2C1F-BztA-Gln-NH2]: the IC50 was 11 nM.
